The test system of data set [1] is glutamic acid at neuromuscular junctions of crayfish (opener muscles of the first walking legs). The data set is described as follows: Blocking effects against glutamic acid at neuromuscular junctions of crayfish (L-glutamic acid-induced depolarization). The note with it: 5 min; suppression rate of depolarization by L-glutamic acid (10^-4 M); 5-minute pretreatment with test compound 2×10^-4 M. The class given is cell-based.
Text: The opener muscles of the first walking legs of crayfish were used as experimental materials. The neuromuscular sample was held in a bath in which a physiological solution [composition (mM): NaCl (195), CaCl2 (18), KCl (5.4), tris-maleate buffer (pH 7.5; 10), glucose (11)] for use with the crayfish was perfused at room temperature and at a constant flow rate. A glass micro-electrode filled with a 3M-KCl solution was inserted in a central part of the muscle fiber to intracellularly record changes in the potential of the muscular cell membrane.
The blocking effect of each test compound against glutamic acid was evaluated in terms of the suppression rate to depolarization which was induced by bath-applying L-glutamic acid (10^-4 M) in a 5-minute pretreatment with a solution of the test compound (2×10^-4 M).

Data set [2] can be described thus: Acute toxicity, up-and-down method. The note with it: mouse, in vivo; iv (caudal vein), ddN male mice. The protocol: Using ddN male mice, the acute toxicity level of each test compound was determined in accordance with an up-and-down method. Some of the test compounds used were dissolved in physiological saline and administered through the caudal vein.
The subject of data set [3] is anemic decerebrate rigidity (Wistar male rats). Put plainly: Effects on anemic decerebrate rigidity (EMG of M. triceps brachii). The class given is in vivo. The note with it: Rattus norvegicus, iv, 10 min, read-out: Suppression rate (rigidity, EMG pulse area).
Experimental: An anemic decerebrate rigidity sample was prepared principally in accordance with the procedure of Fukuda et al. [Japan. […] Wistar male rats (body weight: 270 to 350 g) were held on their backs and incised at their cervices under etherization. After the trachea and common carotid arteries were exposed, the trachea was cannulated and the bilateral common carotid arteries and esophagus were then double-ligated and cut. Thereafter, its occipital bone was exposed through which a circular hole was bored to double-ligate the centrally extending basilar artery. As each rat started coming out of anesthetization, its front limbs became rigid. Measurement was conducted by recording electromyographic (EMG) response from the muscle of the forelimb (M. triceps brachii) of the rat in the rigid state. The EMG pulses were converted to accumulated values every 10 seconds and recorded as a histogram on a recorder.
The effect of each test compound on the rigidity was evaluated in terms of the suppression rate. This rate was calculated first by determining the area of a decreased EMG pulse part on the histogram upon passage of 10 minutes after administration of a physiological saline solution of each test compound (3 mg/kg) through the femoral vein and then in accordance with the following equation.
A: EMG pulse area when no test compound was administered (control).
Where [4] appears, read: 3 mg/kg through the femoral vein, 10 minutes after administration.

Where a name gives a salt, the structure may show the parent alone. Read-outs that look alike come from different tables or passages of the source.

Consider `CC(C)C[C@H](NCCCN1CCCCC1)[C@@H](O)c1ccccc1.Cl.Cl` [Compound 19, (1S,2S)-4-methyl-1-phenyl-2-(3-piperidinopropylamino)pentan-1-ol dihydrochloride], for which the inhibition at 200 µM in data set [1] came to 100%. The LD50 in data set [2] is 28.4 mg/kg. Consider `Cc1cccc([C@@H](O)[C@H](CC(C)C)NCCCN2CCCCC2)c1` (racemic) [Compound 49, (1RS,2SR)-4-methyl-1-(3-methylphenyl)-2-(3-piperidinopropylamino)pentan-1-ol dihydrochloride], for which the inhibition at 200 µM in data set [1] was 100%. For the compound `Cc1ccc(C(=O)C(C)CN2CCCCC2)cc1` (stereo not shown) [Comparative compound 5, tolperisone hydrochloride, reference compound], the inhibition in vivo at 3 mg/kg in data set [3] (setting [4]) is 4.8%. Regarding `CCCCC[C@@H](NCCCN1CCCCC1)[C@H](O)c1ccccc1` (racemic) [Compound 6, (1RS,2RS)-1-phenyl-2-(3-piperidinopropylamino)heptan-1-ol dihydrochloride], the inhibition at 200 µM in data set [1] was 100%.

For `CCN(CCCN1CCCCC1)[C@@H](CCC(C)C)[C@H](O)c1ccccc1` (racemic) [Compound 65, (1RS,2SR)-2-[ethyl-(3-piperidinopropyl)amino]-5-methyl-1-phenylhexan-1-ol dihydrochloride], the inhibition at 200 µM in data set [1] came out at 99%.

As for `CC(C)C[C@@H](NCCCN1CCCCC1)[C@H](O)c1ccc(Cl)cc1` (racemic) [Compound 58, (1RS,2RS)-1-(4-chlorophenyl)-4-methyl-2-(3-piperidinopropylamino)pentan-1-ol dihydrochloride], in data set [1], the inhibition at 200 µM amounted to 97%. Still for that read-out and setting: the value for `Cc1ccc([C@@H](O)[C@@H](CC(C)C)NCCCN2CCCCC2)cc1` (relative stereo) [Compound 52, (1RS,2RS)-4-methyl-1-(4-methylphenyl)-2-(3-piperidinopropylamino)pentan-1-ol dihyrochloride] was 93%. In the case of `CC(C)C[C@H](NCCCN1CCCCC1)[C@H](O)c1ccc(Cl)cc1` (racemic) [Compound 57, (1RS,2SR)-1-(4-chlorophenyl)-4-methyl-2-(3-piperidinopropylamino)pentan-1-ol dihydrochloride], in data set [1], the inhibition at 200 µM turned out to be 99%.

As for `CC(C)C[C@@H](NCCCN1CCCCC1)[C@H](O)c1ccccc1` [Compound 20, (1R,2R)-4-methyl-1-phenyl-2-(3-piperidinopropylamino)pentan-1-ol dihydrochloride], the inhibition at 200 µM in data set [1] turned out to be 98%.

Consider `CCCCCCCC[C@H](NCCCN1CCCCC1)[C@H](O)c1ccccc1` (racemic) [Compound 11, (1RS,2SR)-1-phenyl-2-(3-piperidinopropylamino)decan-1-ol dihydrochloride], for which the inhibition at 200 µM in data set [1] is 100%. Same read-out and setting: the result for `CC(C)CC[C@H](NCCCN1CCOCC1)[C@H](O)c1ccccc1` (racemic) [Compound 37, (1RS,2SR)-5-methyl-2-(3-morpholinopropylamino)-1-phenylhexan-1-ol dihydrochloride] reads 99%. Regarding `C[C@H](NCCN(C)C)[C@H](O)c1ccccc1` (racemic) [Comparative compound 4, (1RS,2SR)-2-(2-dimethylaminoethylamino)-1-phenylpropan-1-ol dihydrochloride, reference compound], in data set [3], the inhibition in vivo at 3 mg/kg turned out to be 1.1%. In the case of `CC(C)C[C@H](NCCN1CCCC1)[C@H](O)c1ccccc1` (racemic) [Compound 31, (1RS,2SR)-4-methyl-1-phenyl-2-(2-pyrrolidinoethylamino)pentan-1-ol dihydrochloride], the inhibition at 200 µM in data set [1] was found to be 91%. For the compound `CC(C)CC[C@@H](NCCCN1CCCCC1)[C@H](O)c1ccccc1.Cl.Cl` (racemic) [Compound 22, (1RS,2RS)-5-methyl-1-phenyl-2-(3-piperidinopropylamino)hexan-1-ol dihydrochloride], the inhibition in vivo at 3 mg/kg in data set [3] (setting [4]) was found to be 42.3%. In data set [1], the inhibition at 200 µM was 100%. Further, the LD50 in data set [2] was 19 mg/kg. Regarding `CC(C)C[C@H](NCCCN1CCCCC1)[C@H](O)c1ccc(F)cc1` (racemic) [Compound 55, (1RS,2SR)-1-(4-fluorophenyl)-4-methyl-2-(3-piperidinopropylamino)pentan-1-ol dihydrochloride], the inhibition at 200 µM in data set [1] worked out at 99%.

In the case of `CC(C)C[C@H](NCCCN1CCCCC1)[C@H](O)c1ccccc1.Cl.Cl` (racemic) [Compound 15, (1RS,2SR)-4-methyl-1-phenyl-2-(3-piperidinopropylamino)pentan-1-ol dihydrochloride], the inhibition at 200 µM in data set [1] worked out at 100%. Also, the LD50 in data set [2] turned out to be 23.6 mg/kg.

As to `CC(C)C[C@H](NCCCN1CCCC1)[C@H](O)c1ccccc1` (racemic) [Compound 23, (1RS,2SR)-4-methyl-1-phenyl-2-(3-pyrrolidinopropylamino)pentan-1-ol dihydrochloride], the inhibition at 200 µM in data set [1] stood at 97%. As to `CC(C)C[C@H](NCCCN1CCCCC1)[C@H](O)c1ccccc1.Cl.Cl` [Compound 17, (1R,2S)-4-methyl-1-phenyl-2-(3-piperidinopropylamino)pentan-1-ol dihydrochloride], in data set [1], the inhibition at 200 µM was 100%. This compound also gave an LD50 in data set [2] of 15.4 mg/kg. On to `Cc1ccccc1[C@@H](O)[C@H](CC(C)C)NCCCN1CCCCC1` (racemic) [Compound 47, (1RS,2SR)-4-methyl-1-(2-methylphenyl)-2-(3-piperidinopropylamino)pentan-1-ol dihydrochloride], for which, in data set [1], the inhibition at 200 µM was found to be 100%. Same read-out and setting: the value for `COc1ccc([C@@H](O)[C@H](CC(C)C)NCCCN2CCCCC2)cc1` (racemic) [Compound 53, (1RS,2SR)-1-(4-methoxyphenyl)-4-methyl-2-(3-piperidinopropylamino)pentan-1-ol dihydrochloride] was 91%. On to `CC(C)CC[C@H](NCCCN(C)C)[C@H](O)c1ccccc1` (racemic) [Compound 39, (1RS,2SR)-2-(3-dimethylaminopropylamino)-5-methyl-1-phenylhexan-1-ol dihydrochloride], for which the inhibition at 200 µM in data set [1] worked out at 100%.

In the case of `CC(C)CC[C@H](NCCN1CCCCC1)[C@H](O)c1ccccc1.Cl.Cl` (racemic) [Compound 41, (1RS,2SR)-5-methyl-1-phenyl-2-(2-piperidinoethylamino)hexan-1-ol dihydrochloride], the inhibition in vivo at 3 mg/kg in data set [3] (setting [4]) amounted to 23.5%. The inhibition at 200 µM in data set [1] stood at 94%. For the same compound, the LD50 in data set [2] is 29.5 mg/kg.

For `CCCCC[C@H](NCCCN1CCCCC1)[C@H](O)c1ccccc1.Cl.Cl` (racemic) [Compound 5, (1RS,2SR)-1-phenyl-2-(3-piperidinopropylamino)heptan-1-ol dihydrochloride], in data set [3] (setting [4]), the inhibition in vivo at 3 mg/kg amounted to 18.5%. For the same compound, the inhibition at 200 µM in data set [1] came to 100%. Also, the LD50 in data set [2] turned out to be 22.1 mg/kg. `CCCCCC[C@H](NCCCN1CCCCC1)[C@H](O)c1ccccc1` (racemic) [Compound 7, (1RS,2SR)-1-phenyl-2-(3-piperidinopropylamino)octan-1-ol dihydrochloride]: the inhibition at 200 µM in data set [1] worked out at 98%.

Consider `CC(C)C[C@H](NCCCN1CCOCC1)[C@H](O)c1ccccc1` (racemic) [Compound 25, (1RS,2SR)-4-methyl-2-(3-morpholinopropylamino)-1-phenylpentan-1-ol dihydrochloride], for which, in data set [1], the inhibition at 200 µM was 90%. As for `CC(C)CC[C@H](NCCCN1CCCCC1)[C@H](O)c1ccccc1.Cl.Cl` (racemic) [Compound 21, (1RS,2SR)-5-methyl-1-phenyl-2-(3-piperidinopropylamino)hexan-1-ol dihydrochloride], the inhibition in vivo at 3 mg/kg in data set [3] (setting [4]) was found to be 65.9%. For the same compound, in data set [1], the inhibition at 200 µM is 100%. In data set [2], this compound gave an LD50 of 13.6 mg/kg. In the case of `CC(C)C[C@H](NCCN1CCCCC1)[C@H](O)c1ccccc1` (racemic) [Compound 29, (1RS,2SR)-4-methyl-1-phenyl-2-(2-piperidinoethylamino)pentan-1-ol dihydrochloride], the inhibition at 200 µM in data set [1] was determined as 93%.

For the compound `CO[C@H](c1ccccc1)[C@H](CCC(C)C)NCCCN1CCCCC1` (racemic) [Compound 59, (1RS,2SR)-5-methyl-1-phenyl-2-(3-piperidinopropylamino)hexan-1-ol methylether dihydrochloride], the inhibition at 200 µM in data set [1] came out at 97%. Still for that read-out and setting: the result for `Cc1ccc([C@@H](O)[C@H](CC(C)C)NCCCN2CCCCC2)cc1` (racemic) [Compound 51, (1RS,2SR)-4-methyl-1-(4-methylphenyl)-2-(3-piperidinopropylamino)pentan-1-ol dihydrochloride] reads 100%.

As for `C[C@H](NCCN1CCCC1)[C@H](O)c1ccccc1` (racemic) [Comparative compound 2, (1RS,2SR)-1-phenyl-2-(2-pyrrolidinoethylamino)propan-1-ol dihydrochloride, reference compound], the inhibition in vivo at 3 mg/kg in data set [3] was determined as 2.2%. Take `CC(C)C[C@H](NCCCN(C)C)[C@H](O)c1ccccc1` (racemic) [Compound 27, (1RS,2SR)-2-(3-dimethylaminopropylamino)-4-methyl-1-phenylpentan-1-ol dihydrochloride]: the inhibition at 200 µM in data set [1] worked out at 95%. As for `CC(C)C[C@@H](NCCCN1CCCCC1)[C@H](O)c1ccccc1.Cl.Cl` (racemic) [Compound 16, (1RS,2RS)-4-methyl-1-phenyl-2-(3-piperidinopropylamino)pentan-1-ol dihydrochloride], in data set [1], the inhibition at 200 µM worked out at 95%. The compound further returned an LD50 in data set [2] of 28.8 mg/kg. With `C[C@H](NCCN1CCOCC1)[C@H](O)c1ccccc1` (racemic) [Comparative compound 3, (1RS,2SR)-2-(2-morpholinoethylamino)-1-phenylpropan-1-ol dihydrochloride, reference compound], in data set [3], the inhibition in vivo at 3 mg/kg is 1%. For `CC(C)C[C@@H](NCCCN1CCCCC1)[C@@H](O)c1ccccc1` [Compound 18, (1S,2R)-4-methyl-1-phenyl-2-(3-piperidinopropylamino)pentan-1-ol dihydrochloride], in data set [1], the inhibition at 200 µM was found to be 97%.

The term inhibition denotes the relative decrease from the control value, in per cent. For orientation: LD50 means the dose expected to kill half of the subjects tested.

(Values after patent publication US5250546A, “Amino-alcohol derivatives and processes for their preparation” (Nippon Chemiphar Co., Ltd., priority 1984, dated 1993).)
